According to patent publication EP1399158B1, “NON-THERAPEUTIC METHOD OF SUPPRESSING OESTRUS IN MAMMALIAN NON-HUMAN ANIMAL” (Vetcare Oy, priority 2001, dated 2002):

Assays:
[1] = system: beagle bitches; assay: Medical trial of oestrus suppression in beagle bitches (oestrus signs, mating behaviour, vaginal cytology, side effects); assay type: in vivo
Procedure: (§1) A medical trial was conducted at University of Kuopio with six (6) beagle bitches the average weight of which was 10 kg and the age ranged from 1 year and 1 month to 3 years and 11 months. The dogs were given finrozole at a dose of 3 mg/dog/day from the first day of oestrus signs for 21 days. The development of oestrus signs were followed daily and serum samples collected twice a week. The sexual behaviour of a fertile male and the bitches was recorded. The male was allowed to mount and mate the bitches.

[2] = system: Estradiol-17-β and progesterone; assay: Hormonal analyses of serum samples (estradiol assay/DPC, Coat-A-Count Progesterone/DPC) in the trial; assay type: in vivo; conditions: six beagle bitches, 3 mg/dog/day for 21 days
Procedure: as §1
Hormonal analyses were carried out at Swedish University of Agricultural Sciences in the Department of Clinical Chemistry Estradiol-17-β (the modified estradiol assay/DPC) and progesterone (Coat-A-Count Progesterone /DPC) were analysed.

[3] = six beagle bitches, 3 mg/dog/day for 21 days

## N#Cc1ccc(C(C(O)Cc2ccc(F)cc2)n2cncn2)cc1 (single isomer, unassigned) [finrozole, 1-[1-(4-cyanophenyl)-3-(4-fluorophenyl)-2-hydroxypropyl]-1,2,4-triazole, diasteroisomer a + d]
[1]; of the four bitches in which oestrus continued, fertile male allowed to mount and mate, 3 mg/dog/day for 21 days
  bitches mated (oestrus continued): Three of them were mated
[1]; of the three mated bitches, 3 mg/dog/day for 21 days
  bitches conceived: two conceived
[1]; [3]
  oestrus signs according to vaginal cytology: no difference could be detected
  side effects during the treatment: No side effects were seen
[1]; six beagle bitches, 3 mg/dog/day from the first day of oestrus signs for 21 days
  Oestrus signs: disappeared in two bitches of six
[2]
  time after starting the treatment during which serum estrogen levels decreased: 4 to 13 days
[2]; serum
  Progesterone levels: increased in five bitches of six
[2]; serum samples twice a week
  serum estrogen levels: decreased in all bitches
